{"source": "patent US8435575B2", "about": "“Use of gingerols for cancer patients suffering from nausea and emesis induced by chemotherapy” (priority 2010, dated 2013)", "origin": "cited, not measured here", "key": {"[1]": {"test_system": "vection-induced motion sickness", "conditions": "college students with self-reported high susceptibility to motion sickness"}, "[2]": {"test_system": "post surgical nausea and vomiting", "conditions": "oral ginger, 1.25 mg intravenous droperidol; 24 hour period following surgery"}, "[3]": {"test_system": "post operative vomiting and nausea"}, "[4]": {"test_system": "post-operative nausea and vomiting"}}, "note": "Entries after “also recorded” stand apart in the source; their conditions may differ.", "data": [{"smiles": "CN(C)CCOC(c1ccccc1)c1ccccc1", "note": "[diphenhydramine]", "values": [{"measurement": "preventing gastrointestinal symptoms caused by vection-induced motion sickness, versus dried chickweed herb placebo", "setting": "[1]", "value": "more effective than dried chickweed herb placebo"}]}, {"smiles": "O=C(CCCN1CC=C(n2c(=O)[nH]c3ccccc32)CC1)c1ccc(F)cc1", "note": "[droperidol]", "values": [{"measurement": "statistically significant decrease in post-operative nausea or vomiting versus placebo", "setting": "[2]", "value": "no differences; also recorded: Neither drug showed a"}]}, {"smiles": "CCN(CC)CCNC(=O)c1cc(Cl)c(N)cc1OC", "note": "[metochlopramide]", "values": [{"measurement": "post-operative nausea versus placebo", "setting": "[3]; 1 gram ginger powder or metochlopramide one hour prior to anaesthesia, laparoscopic gynaecological surgery", "value": "significantly more effective than placebo"}, {"measurement": "patients nauseated", "setting": "[3]; after laparoscopic gynaecological surgery, 41% with placebo", "value": "placebo, 27%"}, {"measurement": "frequency of emesis between the three arms", "setting": "[3]; ginger vs metochlopramide vs placebo", "value": "no significant differences"}, {"measurement": "post-operative nausea and vomiting control versus placebo", "setting": "[4]; 1.0 g ginger or 10 mg metochlopramide orally prior to gynecological surgery, P < .05", "value": "significantly more effective than placebo"}, {"measurement": "post-operative vomiting versus placebo", "setting": "[4]; both active drugs vs placebo", "value": "less vomiting"}]}]}
